Experimental data published in US20210145000A1, “WEED CONTROL FROM APPLICATIONS OF PYRIDINE CARBOXYLIC ACID HERBICIDES AND ACETYL CoA CARBOXYLASE (ACCase) INHIBITORS” (Dow AgroSciences LLC, priority 2018, published 2021).
Where “and” joins values, the source holds several entries; their conditions need not be identical. Equal values may be shown once.

Key:
Experiment in all cases: Postemergence herbicidal activity, greenhouse, visual injury
Type in all cases: in vivo
[1] = system: barnyardgrass (Echinochloa crus-galli, ECHCG); settings: post-emergence, read-out: Effect (% visual injury) Obs
Method: (§1) The plants were grown for 7-36 days (d) in a greenhouse with an approximate 14-hour (h) photoperiod which was maintained at about 23° C. during the day and 22° C. during the night. Nutrients and water were added on a regular basis and supplemental lighting was provided with overhead metal halide 1000-Watt lamps as necessary. The plants were employed for testing when they reached the second or third true leaf stage.
(§2) Spray solutions of the experimental compound mixtures were prepared by adding the stock solutions to the appropriate amount of dilution solution to form a 12 mL spray solution in two-way combinations. […] Control plants were sprayed in the same manner with the solvent blank. Application rates for component (a) are in g ae/ha, and application rates for component (b) are in g ai/ha.
(§3) The treated plants and control plants were placed in a greenhouse as described above and watered by sub-irrigation to prevent wash-off of the test compounds. After 20-22 d, the condition of the test plants as compared with that of the control plants was determined visually and scored on a scale of 0 to 100 percent where 0 corresponds to no injury and 100 corresponds to complete kill. […] The Colby method was used to determine the herbicidal effects expected from the mixtures.

[2] = system: common lambsquarters (Chenopodium album L., CHEAL); settings: post-emergence, read-out: Effect (% visual injury) Obs
Method: as §1, §2, §3

[3] = system: wild pansy (Viola tricolor, VIOTR); settings: post-emergence, read-out: Effect (% visual injury) Obs
Method: as §1, §2, §3

[4] = system: wild oat (Avena fatua, AVEFA); settings: post-emergence, read-out: Effect (% visual injury) Obs
Method: as §1, §2, §3

[5] = system: rice (Oryza sativa, ORYSA); settings: post-emergence, read-out: Effect (% visual injury) Obs
Method: as §1, §2, §3

[6] = system: wild buckwheat (Polygonum convolvulus, POLCO)
Method: as §1, §2, §3

[7] = system: giant foxtail (Setaria faberi, SETFA); settings: post-emergence, read-out: Effect (% visual injury) Obs
Method: as §1, §2, §3

[8] = system: large crabgrass (Digitaria sanguinalis, DIGSA); settings: post-emergence, read-out: Effect (% visual injury) Obs
Method: as §1, §2, §3

[9] = system: blackgrass (Alopecurus myosuroides, ALOMY); settings: post-emergence, read-out: Effect (% visual injury) Obs
Method: as §1, §2, §3

maize (Zea mays, ZEAMX) = settings: post-emergence, read-out: Effect (% visual injury) Obs
Method: as §1, §2, §3

[10] = system: pigweed (Amaranthus retroflexus, AMARE); settings: post-emergence, read-out: Effect (% visual injury) Obs
Method: as §1, §2, §3

[11] = system: sunflower (Helianthus annuus, HELAN); settings: post-emergence, read-out: Effect (% visual injury) Obs
Method: as §1, §2, §3

[12] = system: winter wheat (Triticum aestivum, TRZAW); settings: post-emergence, read-out: Effect (% visual injury) Obs
Method: as §1, §2, §3

[13] = system: soybean (Glycine max, GLXMA); settings: post-emergence, read-out: Effect (% visual injury) Obs
Method: as §1, §2, §3

[14] = system: velvetleaf (Abutilon theophrasti, ABUTH); settings: post-emergence, read-out: Effect (% visual injury) Obs
Method: as §1, §2, §3

[15] = system: kochia (Kochia scoparia, KCHSC)
Method: (§4) Seeds of the desired test plant species were planted in Sun Gro MetroMix® 306 planting mixture, which typically has a pH of 6.0 to 6.8 and an organic matter content of about 30 percent, in plastic pots with a surface area of 103.2 square centimeters (cm^2). When required to ensure good germination and healthy plants, a fungicide treatment and/or other chemical or physical treatment was applied. The plants were grown for 7-36 days (d) in a greenhouse with an approximate 14-hour (h) photoperiod which was maintained at about 23° C. during the day and 22° C. during the night. Nutrients and water were added on a regular basis and supplemental lighting was provided with overhead metal halide 1000-Watt lamps as necessary. The plants were employed for testing when they reached the second or third true leaf stage.
(§5) An emulsifiable concentrate (EC) formulation containing Compound 1 at 100 gai/L was prepared by combining Compound 1 with 1-butyl-2-pyrrolidinone (Tamisolve NxG; 360.5 g/L), benzyl acetate (544.6 g/L) and Agnique MBL 520L surfactant (52.9 g/L). […] The concentrated stock solution was diluted with an aqueous mixture of 1.5% v/v of Agri-dex crop oil concentrate to provide the appropriate application rates. Compound requirements are based upon a 12 milliliter (mL) application volume at a rate of 187 liters per hectare (L/ha). Spray solutions of the experimental compound mixtures were prepared by adding the stock solutions to the appropriate amount of dilution solution to form a 12 mL spray solution in two-way combinations. Formulated compounds were applied to the plant material with an overhead Mandel track sprayer equipped with 8002E nozzles calibrated to deliver 187 L/ha over an application area of 0.503 square meters (m^2) at a spray height of 18 inches (43 centimeters (cm)) above average plant canopy. Control plants were sprayed in the same manner with the solvent blank. Application rates for component (a) are in g ae/ha, and application rates for component (b) are in g ai/ha.
as §3

[16] = system: poinsettia (Euphorbia heterophylla, EPHHL)
Method: as §4, §5, §3

[17] = system: winter rape (Brassica napus, BRSNW); settings: post-emergence, read-out: Effect (% visual injury) Obs
Method: as §4, §5, §3

[18] = system: chickweed (Stellaria media, STEME); settings: post-emergence, read-out: Effect (% visual injury) Obs
Method: as §4, §5, §3

[19] = system: grain sorghum (Sorghum vulgare, SORVU); settings: post-emergence, read-out: Effect (% visual injury) Obs
Method: as §1, §2, §3

[20] = system: ivyleaf morningglory (Ipomoea hederacea, IPOHE); settings: Compound 1 5 g ai/ha
Method: as §4, §5, §3

[21] = Fallopia convolvulus, post-emergence, read-out: Effect (% visual injury) Obs

CCSC(C)CC1CC(=O)C(C(CC)=NOC/C=C/Cl)=C(O)C1 (centres unmarked) [Clethodim]
pest or weed control at 70 g/ha [1]: 100%
pest or weed control at 70 g/ha [2]: 5%
pest or weed control at 70 g/ha [3]: 5%
pest or weed control at 70 g/ha [4]: 97%
plant injury at 70 g/ha [5]: 90%
pest or weed control at 70 g/ha [6, 21]: 10%
pest or weed control at 70 g/ha [7]: 85%
pest or weed control at 70 g/ha [8]: 70%
pest or weed control at 70 g/ha [9]: 93%
plant injury at 70 g/ha (maize (Zea mays, ZEAMX)): 100%
pest or weed control at 70 g/ha [10]: 5%
plant injury at 70 g/ha [11]: 0%
plant injury at 70 g/ha [12]: 70%
plant injury at 70 g/ha [13]: 10%
pest or weed control at 70 g/ha [14]: 0%
Effect (% visual injury) Obs ([15]; Clethodim 70 g ai/ha): 0%
Effect (% visual injury) Obs ([16]; Clethodim 70 g ai/ha): 30%
plant injury at 70 g/ha [17]: 5%
pest or weed control at 70 g/ha [18]: 10%

Nc1c(F)c(-c2ccc3cc[nH]c3c2F)nc(C(=O)O)c1Cl [Compound 1]
pest or weed control at 10 g/ha ([1]; Compound 1 10 g ai/ha): 60%
pest or weed control at 5 g/ha ([2]; Compound 1 5 g ai/ha): 100%
pest or weed control at 10 g/ha ([2]; Compound 1 10 g ai/ha): 100%
pest or weed control at 10 g/ha ([3]; Compound 1 10 g ai/ha): 10%
pest or weed control at 5 g/ha ([4]; Compound 1 5 g ai/ha): 0%
pest or weed control at 10 g/ha ([4]; Compound 1 10 g ai/ha): 0%
plant injury at 5 g/ha ([5]; Compound 1 5 g ai/ha): 0%
plant injury at 10 g/ha ([5]; Compound 1 10 g ai/ha): 10%
Effect (% visual injury) Obs ([6]; Compound 1 10 g ai/ha): 75%
pest or weed control at 10 g/ha ([6]; Fallopia convolvulus, post-emergence, Compound 1 10 g ai/ha, read-out: Effect (% visual injury) Obs): 75%
pest or weed control at 10 g/ha ([7]; Compound 1 10 g ai/ha): 50%
pest or weed control at 5 g/ha ([8]; Compound 1 5 g ai/ha): 0%
pest or weed control at 10 g/ha ([8]; Compound 1 10 g ai/ha): 10%
pest or weed control at 5 g/ha ([9]; Compound 1 5 g ai/ha): 0%
pest or weed control at 10 g/ha ([9]; Compound 1 10 g ai/ha): 0%
plant injury at 5 g/ha (maize (Zea mays, ZEAMX); Compound 1 5 g ai/ha): 0%
plant injury at 10 g/ha (maize (Zea mays, ZEAMX); Compound 1 10 g ai/ha): 0%
pest or weed control at 10 g/ha ([10]; Compound 1 10 g ai/ha): 97%
plant injury at 10 g/ha ([19]; Compound 1 10 g ai/ha): 50%
plant injury at 5 g/ha ([11]; Compound 1 5 g ai/ha): 95%
plant injury at 10 g/ha ([11]; Compound 1 10 g ai/ha): 90%
plant injury at 5 g/ha ([12]; Compound 1 5 g ai/ha): 0%
plant injury at 10 g/ha ([12]; Compound 1 10 g ai/ha): 0%
plant injury at 5 g/ha ([13]; Compound 1 5 g ai/ha): 100%
plant injury at 10 g/ha ([13]; Compound 1 10 g ai/ha): 100%
pest or weed control at 5 g/ha ([14]; Compound 1 5 g ai/ha): 50%
pest or weed control at 10 g/ha ([14]; Compound 1 10 g ai/ha): 60%
Effect (% visual injury) Obs ([15]; Compound 1 5 g ai/ha): 60%
Effect (% visual injury) Obs ([15]; Compound 1 10 g ai/ha): 60%
Effect (% visual injury) Obs ([16]; Compound 1 5 g ai/ha): 100% and 97%
Effect (% visual injury) Obs ([16]; Compound 1 10 g ai/ha): 97%
plant injury at 5 g/ha ([17]; Compound 1 5 g ai/ha): 60%
plant injury at 10 g/ha ([17]; Compound 1 10 g ai/ha): 45%
Effect (% visual injury) Obs [20]: 10%
pest or weed control at 10 g/ha ([18]; Compound 1 10 g ai/ha): 70%

CCCC(=NOCC)C1=C(O)CC(CC(C)SCC)CC1=O (racemic) [Sethoxydim, (±)-(EZ)-2-(1-ethoxyiminobutyl)-5-[2-(ethylthio)propyl]-3-hydroxycyclohex-2-enone]
pest or weed control at 140 g/ha [1]: 50%
pest or weed control at 140 g/ha [2]: 5%
pest or weed control at 140 g/ha [3]: 5%
pest or weed control at 140 g/ha [4]: 85%
plant injury at 140 g/ha [5]: 75%
pest or weed control at 140 g/ha [6, 21]: 0%
pest or weed control at 140 g/ha [7]: 85%
pest or weed control at 140 g/ha [8]: 60%
pest or weed control at 140 g/ha [9]: 95%
plant injury at 140 g/ha (maize (Zea mays, ZEAMX)): 75%
pest or weed control at 140 g/ha [10]: 0%
plant injury at 140 g/ha [19]: 100%
plant injury at 140 g/ha [11]: 0%
plant injury at 140 g/ha [12]: 60%
plant injury at 140 g/ha [13]: 0%
pest or weed control at 140 g/ha [14]: 0%
Effect (% visual injury) Obs ([15]; Sethoxydim 140 g ai/ha): 0%
Effect (% visual injury) Obs ([16]; Sethoxydim 140 g ai/ha): 10%
plant injury at 140 g/ha [17]: 0%
pest or weed control at 140 g/ha [18]: 10%
